ChEMBL document CHEMBL3397002, “Design, synthesis, and bioevaluation of paeonol derivatives as potential anti-HBV agents” (Eur J Med Chem, 2015)

Legend:
[1] = tested on: Hepatitis B virus; experiment: Decrease in HBV viral DNA replication in human HepG2(2.2.15) cells at 0.75 to 3 uM after 72 hrs by real-time PCR analysis; type: functional, organism-based; details: HepG2 2.2.15, 72 h
[2] = Selectivity index, ratio of TC50 for human HepG2(2.2.15) cells to IC50 for decrease in HBV viral DNA replication in human HepG2(2.2.15) cells
[3] = Selectivity index, ratio of TC50 for human HepG2(2.2.15) cells to IC50 for decrease in hepatitis B viral surface antigen HBeAg secretion in human HepG2(2.2.15) cells
[4] = tested on: Hepatitis B virus; experiment: Decrease in hepatitis B viral surface antigen HBsAg secretion in human HepG2(2.2.15) cells at 0.75 to 3 uM after 72 hrs by EIA analysis; type: functional, organism-based; details: HepG2 2.2.15, 72 h
[5] = tested on: Hepatitis B virus; experiment: Decrease in hepatitis B viral surface antigen HBeAg secretion in human HepG2(2.2.15) cells at 0.75 to 3 uM after 72 hrs by EIA analysis; type: functional, organism-based; details: HepG2 2.2.15, 72 h
[6] = Cytotoxicity against human HepG2(2.2.15) cells assessed as decrease in cell viability after 72 hrs by MTS assay; type: cell-based; details: read-out: TC50
[7] = Selectivity index, ratio of TC50 for human HepG2(2.2.15) cells to IC50 for decrease in hepatitis B viral surface antigen HBsAg secretion in human HepG2(2.2.15) cells
[8] = tested on: Hepatitis B virus; experiment: Decrease in level of HBV 3.5-kb precore/pregenomic and 2.4-/2.1-kb surface antigen RNA in human HepG2(2.2.15) cells after 48 hrs by Northern blot analysis; type: functional, organism-based
[9] = Effect on cell cycle of human HepG2(2.2.15) cells assessed as cells at G2M phase at 0.75 to 3 uM after 72 hrs by propidium iodide staining based flow cytometry; type: ADME; details: hepg2 2.2.15, 72 h
[10] = Effect on cellular morphology of human HepG2(2.2.15) cells at 0.75 to 3 uM after 72 hrs by Giemsa staining method; type: ADME, cell-based; details: hepg2 2.2.15, 72 h
[11] = Effect on cell cycle of human HepG2(2.2.15) cells assessed as cells at G1 phase at 0.75 to 3 uM after 72 hrs by propidium iodide staining based flow cytometry; type: ADME; details: hepg2 2.2.15, 72 h

SMILES	IC50 [1]	Selectivity Index [2]	Selectivity Index [3]	IC50 [4]	IC50 [5]	CC50 at 72 h [6]	Selectivity Index [7]	inhibition [8]	Activity [9]	Activity [10]	Activity [11]
COc1ccc(C(C)=O)c(OS(=O)(=O)c2ccc(Br)cc2)c1	0.44 µM	22.91	5.42	2.01 µM	1.86 µM	10.1 µM	4.99	–	–	–	–
COc1ccc(S(=O)(=O)Oc2cc(OC)ccc2C(C)=O)cc1	0.36 µM	47.75	7.67	1.55 µM	2.24 µM	17.2 µM	11.09	Dose-dependent effect	Non-toxic	Non-toxic	Non-toxic
COc1ccc(C(C)=O)c(OS(=O)(=O)c2ccc(N)cc2)c1	–	–	0.95	21.7 µM	72.5 µM	68.8 µM	3.17	–	–	–	–
O=c1[nH]cc(F)c(=O)[nH]1 [FLUOROURACIL]	–	–	–	–	–	21.7 µM	–	–	–	–	–
COc1ccc(C(C)=O)c(OS(=O)(=O)c2ccccc2)c1	1.86 µM	29.77	3.36	7.3 µM	16.5 µM	55.4 µM	7.58	–	–	–	–
Nc1ccn([C@@H]2CS[C@H](CO)O2)c(=O)n1 [LAMIVUDINE]	7.63 µM	46.13	–	–	–	352 µM	–	–	–	–	–
COc1ccc(C(C)=O)c(OS(=O)(=O)c2ccc(F)cc2)c1	2.71 µM	19.82	4.81	5.05 µM	11.2 µM	53.7 µM	10.64	–	–	–	–
COc1ccc(C(C)=O)c(OS(=O)(=O)c2ccc([N+](=O)[O-])cc2)c1	1.15 µM	9.5	2.35	1.77 µM	4.64 µM	10.9 µM	6.17	–	–	–	–
COc1ccc(C(C)=O)c(OS(=O)(=O)c2ccc(C)cc2)c1	1.04 µM	22.81	3.47	3.18 µM	6.83 µM	23.7 µM	7.46	–	–	–	–
COc1ccc(C(C)=O)c(OS(=O)(=O)c2ccc(Cl)cc2)c1	0.57 µM	24.16	3.28	2.83 µM	4.2 µM	13.8 µM	4.87	–	–	–	–
